Assays:
[1] = test system: MOLM-14 F691L (endogenous FLT3 ITD and transfected FLT3 F691L); assay: MOLM-14 F691L cell proliferation assay (CellTiter-Glo); type: cell-based; settings: Homo sapiens, MOLM-14, 72 h; 3 d growth, GMean
Procedure, shortened: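 Three-day proliferation at 37 °C/5% CO2 of FLT3-ITD MOLM-14 lines with D835Y or F691L mutation, seeded 1×10^4 per well. Compounds at eight points, top 1 μM final, 0.2% DMSO. ATP luminescence (CellTiter-Glo) gives IC50.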

[2] = biological target: T1, FLT3-ITD (Homo sapiens, UniProt P36888); assay: FLT3-ITD recombinant enzyme kinase assay (AlphaScreen); type: biochemical; settings: 8 pt; read-out: FLT3_ITD 8 pt: IC50
T1 sequence (P36888 1-993): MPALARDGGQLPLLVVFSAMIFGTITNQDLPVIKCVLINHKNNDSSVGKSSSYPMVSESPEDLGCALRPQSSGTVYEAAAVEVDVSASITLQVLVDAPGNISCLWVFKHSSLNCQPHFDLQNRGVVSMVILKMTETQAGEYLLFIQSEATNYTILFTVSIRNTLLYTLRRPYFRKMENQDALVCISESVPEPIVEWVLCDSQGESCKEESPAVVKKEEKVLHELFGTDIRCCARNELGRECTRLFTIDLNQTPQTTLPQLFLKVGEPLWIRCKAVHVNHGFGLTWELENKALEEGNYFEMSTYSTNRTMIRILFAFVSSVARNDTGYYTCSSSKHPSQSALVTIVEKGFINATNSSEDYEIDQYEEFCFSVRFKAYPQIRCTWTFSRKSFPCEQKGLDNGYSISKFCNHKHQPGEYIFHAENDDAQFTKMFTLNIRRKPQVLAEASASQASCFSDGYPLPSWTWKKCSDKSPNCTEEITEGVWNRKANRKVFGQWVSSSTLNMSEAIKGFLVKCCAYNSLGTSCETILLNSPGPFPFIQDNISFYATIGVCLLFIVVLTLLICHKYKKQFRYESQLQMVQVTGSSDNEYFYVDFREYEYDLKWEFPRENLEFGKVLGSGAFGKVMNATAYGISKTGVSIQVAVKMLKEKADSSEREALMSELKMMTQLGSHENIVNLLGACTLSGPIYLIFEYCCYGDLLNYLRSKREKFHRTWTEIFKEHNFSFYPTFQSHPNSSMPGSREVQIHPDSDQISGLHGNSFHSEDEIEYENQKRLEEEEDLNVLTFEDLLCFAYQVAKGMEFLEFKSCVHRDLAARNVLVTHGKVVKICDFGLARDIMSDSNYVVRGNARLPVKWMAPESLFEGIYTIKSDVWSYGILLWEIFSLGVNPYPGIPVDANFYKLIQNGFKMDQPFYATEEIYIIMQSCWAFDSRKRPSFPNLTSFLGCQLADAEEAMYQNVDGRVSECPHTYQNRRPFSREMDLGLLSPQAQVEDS
Procedure, shortened: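 Kinase activity of recombinant FLT3-ITD, FLT3-D835Y and c-KIT was followed via phosphotyrosine formation on a 30 nM biotin-peptide substrate, captured on streptavidin donor and anti-phosphotyrosine acceptor AlphaScreen beads. ATP was set at 10 μM for FLT3 and 100 μM for c-KIT.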

| Structure (SMILES) | IC50 [1] [µM] | IC50 [2] [µM] |
| --- | --- | --- |
| COc1ncc(NC(=O)Cc2ccc(-c3cnc4[nH]c(-c5ccc(C#N)nc5)cc4c3)cc2F)cc1C(F)(F)F [Compound P-0011, 2-[4-[2-(6-cyano-3-pyridyl)-1H-pyrrolo[2,3-b]pyridin-5-yl]-2-fluoro-phenyl]-N-[6-methoxy-5-(trifluoromethyl)-3-pyridyl]acetamide] | 0.0001 to 10 |  |
| COc1ncc(NC(=O)Cc2ccc(-c3cnc4[nH]c(-c5ccnc(C#N)c5)cc4c3)cc2F)cc1C(F)(F)F [Compound P-0013, 2-[4-[2-(2-cyano-4-pyridyl)-1H-pyrrolo[2,3-b]pyridin-5-yl]-2-fluoro-phenyl]-N-[6-methoxy-5-(trifluoromethyl)-3-pyridyl]acetamide] | 0.0001 to 10 |  |
| COc1ncc(NC(=O)Cc2ccc(-c3cnc4[nH]c(-c5ccc(C#N)nc5)cc4c3)c(F)c2)cc1C(F)(F)F [Compound P-0014, 2-[4-[2-(6-cyano-3-pyridyl)-1H-pyrrolo[2,3-b]pyridin-5-yl]-3-fluoro-phenyl]-N-[6-methoxy-5-(trifluoromethyl)-3-pyridyl]acetamide] | 0.0001 to 10 |  |
| COc1ncc(NC(=O)Cc2ccc(-c3cnc4[nH]c(-c5cnn(C(F)F)c5)cc4c3)cc2F)cc1C(F)(F)F [Compound P-0015, 2-[4-[2-[1-(difluoromethyl)pyrazol-4-yl]-1H-pyrrolo[2,3-b]pyridin-5-yl]-2-fluoro-phenyl]-N-[6-methoxy-5-(trifluoromethyl)-3-pyridyl]acetamide] | 0.0001 to 10 |  |
| COc1ncc(NC(=O)Cc2ccc(-c3cnc4[nH]c(-c5ccnc(C#N)c5)cc4c3)c(F)c2)cc1C(F)(F)F [Compound P-0016, 2-[4-[2-(2-cyano-4-pyridyl)-1H-pyrrolo[2,3-b]pyridin-5-yl]-3-fluoro-phenyl]-N-[6-methoxy-5-(trifluoromethyl)-3-pyridyl]acetamide] | 0.0001 to 10 |  |
| Cn1cc(Nc2ncc(-c3ccc(CC(=O)Nc4cc(C(F)(F)F)ccn4)cc3F)cn2)cn1 [Compound P-0017, 2-[3-fluoro-4-[2-[(1-methylpyrazol-4-yl)amino]pyrimidin-5-yl]phenyl]-N-[4-(trifluoromethyl)-2-pyridyl]acetamide] | 0.0001 to 10 | 0.0001 to 10 |
| Cn1cnc(Nc2ncc(-c3ccc(CC(=O)Nc4cc(C(F)(F)F)ccn4)cc3F)cn2)c1 [Compound P-0018, 2-[3-fluoro-4-[2-[(1-methylimidazol-4-yl)amino]pyrimidin-5-yl]phenyl]-N-[4-(trifluoromethyl)-2-pyridyl]acetamide] |  | 0.0001 to 10 |
| Cn1cc(Nc2ncc(-c3cc(F)c(CC(=O)Nc4cc(C(F)(F)F)ccn4)cc3F)cn2)cn1 [Compound P-0019, 2-[2,5-difluoro-4-[2-[(1-methylpyrazol-4-yl)amino]pyrimidin-5-yl]phenyl]-N-[4-(trifluoromethyl)-2-pyridyl]acetamide] | 0.0001 to 10 | 0.0001 to 10 |
| Cn1cnc(Nc2ncc(-c3cc(F)c(CC(=O)Nc4cc(C(F)(F)F)ccn4)cc3F)cn2)c1 [Compound P-0020, 2-[2,5-difluoro-4-[2-[(1-methylimidazol-4-yl)amino]pyrimidin-5-yl]phenyl]-N-[4-(trifluoromethyl)-2-pyridyl]acetamide] |  | 0.0001 to 10 |
| O=C(Cc1cc(F)c(-c2cnc(Nc3cnn(C(F)F)c3)nc2)cc1F)Nc1cc(C(F)(F)F)ccn1 [Compound P-0021, 2-[4-[2-[[1-(difluoromethyl)pyrazol-4-yl]amino]pyrimidin-5-yl]-2,5-difluoro-phenyl]-N-[4-(trifluoromethyl)-2-pyridyl]acetamide] |  | 0.0001 to 10 |
| Cn1cnc(Nc2ncc(-c3ccc(CC(=O)Nc4cc(C(F)(F)F)ccn4)cc3)cn2)c1 [Compound P-0022, 2-[4-[2-[(1-methylimidazol-4-yl)amino]pyrimidin-5-yl]phenyl]-N-[4-(trifluoromethyl)-2-pyridyl]acetamide] | 0.0001 to 10 | 0.0001 to 10 |
| O=C(Cc1ccc(-c2cnc(Nc3cnn(C(F)F)c3)nc2)cc1)Nc1cc(C(F)(F)F)ccn1 [Compound P-0023, 2-[4-[2-[[1-(difluoromethyl)pyrazol-4-yl]amino]pyrimidin-5-yl]phenyl]-N-[4-(trifluoromethyl)-2-pyridyl]acetamide] | 0.0001 to 10 | 0.0001 to 10 |
| COc1cc(-c2cc3cc(-c4ccc(CC(=O)Nc5cncc(C(F)(F)F)c5)cc4F)cnc3[nH]2)ccn1 [Compound P-0200, 2-(3-fluoro-4-(2-(2-methoxypyridin-4-yl)-1H-pyrrolo[2,3-b]pyridin-5-yl)phenyl)-N-(5-(trifluoromethyl)pyridin-3-yl)acetamide] | 0.0001 to 10 | 0.0001 to 10 |
| O=C(Cc1ccc(-c2cnc3[nH]c(-c4ccnc(N5CCOCC5)c4)cc3c2)c(F)c1)Nc1cncc(C(F)(F)F)c1 [Compound P-0201, 2-[3-fluoro-4-[2-(2-morpholino-4-pyridyl)-1H-pyrrolo[2,3-b]pyridin-5-yl]phenyl]-N-[5-(trifluoromethyl)-3-pyridyl]acetamide] | 0.0001 to 10 | 0.0001 to 10 |
| CCOc1n[nH]c2ncc(-c3ccc(CC(=O)Nc4cnc(OC)c(C(F)(F)F)c4)cc3F)cc12 [Compound P-0202, 2-[4-(3-ethoxy-1H-pyrazolo[3,4-b]pyridin-5-yl)-3-fluoro-phenyl]-N-[6-methoxy-5-(trifluoromethyl)-3-pyridyl]acetamide] | 0.0001 to 10 | 0.0001 to 10 |
| COc1ncc(NC(=O)Cc2ccc(-c3cnc4[nH]nc(N)c4c3)c(F)c2)cc1C(F)(F)F [Compound P-0203, 2-[4-(3-amino-1H-pyrazolo[3,4-b]pyridin-5-yl)-3-fluoro-phenyl]-N-[6-methoxy-5-(trifluoromethyl)-3-pyridyl]acetamide] | 0.0001 to 10 | 0.0001 to 10 |
| COc1ncc(NC(=O)Cc2cc(F)c(-c3cnc(Nc4cnn(C)c4)nc3)cc2F)cc1C(F)(F)F [Compound P-0208, 2-[2,5-difluoro-4-[2-[(1-methylpyrazol-4-yl)amino]pyrimidin-5-yl]phenyl]-N-[6-methoxy-5-(trifluoromethyl)-3-pyridyl]acetamide] | 0.0001 to 10 |  |
| CCn1cc(Nc2ncc(-c3ccc(CC(=O)Nc4cnc(OC)c(C(F)(F)F)c4)cc3F)cn2)cn1 [Compound P-0246, 2-[4-[2-[(1-ethylpyrazol-4-yl)amino]pyrimidin-5-yl]-3-fluoro-phenyl]-N-[6-methoxy-5-(trifluoromethyl)-3-pyridyl]acetamide] | 0.0001 to 10 |  |
| CCn1cc(Nc2ncc(-c3cc(F)c(CC(=O)Nc4cnc(OC)c(C(F)(F)F)c4)cc3F)cn2)cn1 [Compound P-0247, 2-[4-[2-[(1-ethylpyrazol-4-yl)amino]pyrimidin-5-yl]-2,5-difluoro-phenyl]-N-[6-methoxy-5-(trifluoromethyl)-3-pyridyl]acetamide] | 0.0001 to 10 |  |
| CCn1cc(Nc2ncc(-c3ccc(CC(=O)Nc4cnc(C)c(C(F)(F)F)c4)cc3F)cn2)cn1 [Compound P-0248, 2-[4-[2-[(1-ethylpyrazol-4-yl)amino]pyrimidin-5-yl]-3-fluoro-phenyl]-N-[6-methyl-5-(trifluoromethyl)-3-pyridyl]acetamide] | 0.0001 to 10 |  |
| CCn1cc(Nc2ncc(-c3cc(F)c(CC(=O)Nc4cnc(C)c(C(F)(F)F)c4)cc3F)cn2)cn1 [Compound P-0249, 2-[4-[2-[(1-ethylpyrazol-4-yl)amino]pyrimidin-5-yl]-2,5-difluoro-phenyl]-N-[6-methyl-5-(trifluoromethyl)-3-pyridyl]acetamide] | 0.0001 to 10 |  |
| COc1ncc(NC(=O)Cc2ccc(-c3cnc4[nH]nc(C5CC5)c4c3)cc2F)cc1C(F)(F)F [Compound P-0262, 2-[4-(3-cyclopropyl-1H-pyrazolo[3,4-b]pyridin-5-yl)-2-fluoro-phenyl]-N-[6-methoxy-5-(trifluoromethyl)-3-pyridyl]acetamide] | 0.0001 to 10 |  |
| COc1ncc(NC(=O)Cc2ccc(-c3cnc4[nH]nc(C5CC5)c4c3)cc2)cc1C(F)(F)F [Compound P-0263, 2-[4-(3-cyclopropyl-1H-pyrazolo[3,4-b]pyridin-5-yl)phenyl]-N-[6-methoxy-5-(trifluoromethyl)-3-pyridyl]acetamide] | 0.0001 to 10 |  |

Source: patent publication US10160747B2, “Compounds and methods for kinase modulation, and indications therefor” (Plexxikon Inc., priority 2016, dated 2018)
